Common to all, as to type: cell-based
For one experiment, the system named is SW480. Description: Minimal effective concentration that elicits polyploidy, SW480. The note with it: Homo sapiens, read-out: MECP: Minimal effective concentration that elicits polyploidy.
The test system of experiment [1] is RPEMYC^H2B-GFP cells. Description: Mechanism-informed phenotypic screening assay (mitotic arrest, polyploidy; GE IN-Cell Analyzer 2000). The note with it: 20 nM to 20 μM, 24, 48 or 72 hours, read-out: Min. Effective conc. for polyploidy (≥5%). The gist of the method:
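Cells expressing Histone 2B-EGFP (RPEMYC^H2B-GFP) were plated 18-24 h before exposure to compounds at 20 nM to 20 μM. At 24, 48 or 72 h, imaging scored mitotic arrest or change in DNA content. Value is the lowest concentration giving polyploid accumulation at 48 h.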

The subject of experiment [2] is breast cancer cell line MDA-MB-231. Description: MTT assay of cellular proliferation, MDA-MB-231. The conditions noted are these: Homo sapiens, read-out: EC50: Concentration that inhibits 50% of proliferation. The essentials: (§1)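 EC50, the concentration halving proliferation, came from formazan absorbance at 570 nm after 3–4 h MTT incubation. Cells at 20–30% confluence were treated with drug over 1 nM–10 μM. The culture medium was DMEM plus 5% FBS, glutamine and pyruvate at 37° C.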

For experiment [3], the system named is cervical cancer cell line Hela. Description: Minimal effective concentration that elicits polyploidy, Hela. The conditions noted are these: Homo sapiens, read-out: MECP: Minimal effective concentration that elicits polyploidy.
The subject of experiment [4] is colon cancer cell line HCT116. Briefly: MTT assay of cellular proliferation, HCT116. The conditions noted are these: Homo sapiens, HCT-116, read-out: EC50: Concentration that inhibits 50% of proliferation. The essentials: as §1
Experiment [5] concerns gastric cancer cell line NCI-N87. Description: MTT assay of cellular proliferation, NCI-N87. The conditions noted are these: Homo sapiens, read-out: EC50: Concentration that inhibits 50% of proliferation. The gist of the method:
as §1

Experiment [6] has the same test system. Briefly: Minimal effective concentration that elicits polyploidy, NCI-N87. The conditions noted are these: Homo sapiens, read-out: MECP: Minimal effective concentration that elicits polyploidy.
The subject of experiment [7] is lung cancer cell line A549. Briefly: MTT assay of cellular proliferation, A549. The note with it: Homo sapiens, read-out: EC50: Concentration that inhibits 50% of proliferation. The essentials:
as §1

Experiment [8] concerns liver cancer cell line T2 HCC. Description: Minimal effective concentration that elicits polyploidy, T2 HCC. The note with it: Mus musculus, read-out: MECP: Minimal effective concentration that elicits polyploidy.
Experiment [9] concerns cervical cancer cell line Hela. Description: MTT assay of cellular proliferation, Hela. The conditions noted are these: Homo sapiens, read-out: EC50: Concentration that inhibits 50% of proliferation. The essentials: as §1
Experiment [10] has as its system RPEMYC^H2B-GFP cells. Description: Mechanism-informed phenotypic screening assay (mitotic arrest, polyploidy; GE IN-Cell Analyzer 2000). The conditions noted are these: 20 nM to 20 μM, 24, 48 or 72 hours, read-out: Mitotic Arrest (≥5%).
The test system of experiment [11] is colon cancer cell line HCT116. Description: Minimal effective concentration that elicits polyploidy, HCT116. The note with it: Homo sapiens, HCT-116, read-out: MECP: Minimal effective concentration that elicits polyploidy.
The test system of experiment [12] is colon cancer cell line SW460. Briefly: MTT assay of cellular proliferation, SW460. The conditions noted are these: Homo sapiens, SW480; read-out: EC50: Concentration that inhibits 50% of proliferation. The essentials:
as §1

Experiment [13] has as its system lung cancer cell line NCI-H23. Description: MTT assay of cellular proliferation, NCI-H23. The conditions noted are these: Homo sapiens, read-out: EC50: Concentration that inhibits 50% of proliferation. The gist of the method:
as §1

In experiment [14] the test system is liver cancer cell line T2 HCC. Description: MTT assay of cellular proliferation, T2 HCC. The conditions noted are these: Mus musculus, read-out: EC50: Concentration that inhibits 50% of proliferation. The essentials:
as §1

For experiment [15], the system named is lung cancer cell line NCI-H23. Description: Minimal effective concentration that elicits polyploidy, NCI-H23. The conditions noted are these: Homo sapiens, read-out: MECP: Minimal effective concentration that elicits polyploidy.
Experiment [16] concerns breast cancer cell line MDA-MB-231. Briefly: Minimal effective concentration that elicits polyploidy, MDA-MB-231. The conditions noted are these: Homo sapiens, read-out: MECP: Minimal effective concentration that elicits polyploidy.
The test system of experiment [17] is lung cancer cell line A549. Description: Minimal effective concentration that elicits polyploidy, A549. The note with it: Homo sapiens, read-out: MECP: Minimal effective concentration that elicits polyploidy.

Where two headings read alike, the source gives them in different places.

Regarding `CNC(=O)c1cc(OC)cc(Oc2ncccc2-c2ccncc2)c1` [Compound 4, 3-([3,4′-bipyridin]-2-yloxy)-5-methoxy-N-methylbenzamide], the minimal effective concentration in the experiment on SW480 was 0.001 to 1 µM; in the experiment with RPEMYC^H2B-GFP cells [1] it was 1 µM; in experiment [3] it was 0.001 to 1 µM; in [6], 0.001 to 1 µM; in [8], 0.001 to 1 µM; in the experiment on RPEMYC^H2B-GFP cells [10], 1 µM. Also, the minimal effective concentration in [11], in experiment [15], in experiment [16] and in experiment [17] was 0.001 to 1 µM in each case. Further, the EC50 in experiment [2] lay within 1 to 1000 nM; in [4] it was 1 to 1000 nM; in [5], 1000 to 10000 nM; in experiment [7] it was 1 to 1000 nM; in experiment [9], 1 to 1000 nM; in [12], 1 to 1000 nM. In addition, the EC50 in [13] and in experiment [14] was 1 to 1000 nM each time.

As to `CNC(=O)c1cc(OC)cc(Oc2ncccc2-c2ccnc(C)c2)c1` [Compound 36, 3-methoxy-N-methyl-5-((2′-methyl-[3,4′-bipyridin]-2-yl)oxy)benzamide], the minimal effective concentration in the experiment with SW480 is 0.001 to 1 µM; with RPEMYC^H2B-GFP cells [1], 1 µM; in experiment [3], 0.001 to 1 µM; in [6] it was 0.001 to 1 µM; in [8], 0.001 to 1 µM; in the experiment with RPEMYC^H2B-GFP cells [10], 1 µM. Moreover, the minimal effective concentration in [11], in experiment [15], in [16] and in experiment [17] was 0.001 to 1 µM throughout. Further, the EC50 in experiment [2], in experiment [4], in experiment [5], in experiment [7], in experiment [9] and in experiment [12] was 1 to 1000 nM each time. The EC50 in experiment [13] and in [14] was 1 to 1000 nM each time.

As to `COc1cc(Oc2ncccc2-c2ccnc(C)c2)cc(-n2cccn2)c1` [Compound 41, 2-(3-methoxy-5-(1H-pyrazol-1-yl)phenoxy)-2′-methyl-3,4′-bipyridine], the minimal effective concentration is 0.001 to 1 µM in the experiment on SW480; 1 µM with RPEMYC^H2B-GFP cells [1]; 0.001 to 1 µM in experiment [3]; 0.001 to 1 µM in experiment [6]; 0.001 to 1 µM in experiment [8]; 1 µM in the experiment with RPEMYC^H2B-GFP cells [10]. In addition, the minimal effective concentration in experiment [11], in experiment [15], in experiment [16] and in experiment [17] was 0.001 to 1 µM throughout. Also, the EC50 in experiment [2], in experiment [4], in experiment [5], in [7], in experiment [9] and in experiment [12] was 1 to 1000 nM each time. Moreover, the EC50 in experiment [13] and in experiment [14] was 1 to 1000 nM throughout.

On to `CCOc1cc(Oc2ncccc2-c2ccnc(OC)c2)cc(C(=O)NC)c1` [Compound 28, 3-ethoxy-5-((2′-methoxy-[3,4′-bipyridin]-2-yl)oxy)-N-methylbenzamide], for which the minimal effective concentration in the experiment with SW480 was 0.001 to 1 µM; in the experiment with RPEMYC^H2B-GFP cells [1], 1 µM; in experiment [3], 0.001 to 1 µM; in experiment [6], 0.001 to 1 µM; in [8], 0.001 to 1 µM; in the experiment with RPEMYC^H2B-GFP cells [10], 1 µM. For the same compound, the minimal effective concentration in [11], in experiment [15], in experiment [16] and in experiment [17] was 0.001 to 1 µM each time. The EC50 in [2], in experiment [4], in experiment [5], in [7], in experiment [9] and in [12] was 1 to 1000 nM in each case. Moreover, the EC50 in experiment [13] and in [14] was 1 to 1000 nM each time.

Consider `COC(=O)c1cc(OC)cc(Oc2nccnc2-c2cccnc2)c1` [Compound 52, methyl 3-methoxy-5-((3-(pyridin-3-yl)pyrazin-2-yl)oxy)benzoate], for which the minimal effective concentration with SW480 is 0.001 to 1 µM; in the experiment with RPEMYC^H2B-GFP cells [1] it was 1 µM; in experiment [3] it was 0.001 to 1 µM; in experiment [6], 0.001 to 1 µM; in experiment [8] it was 0.001 to 1 µM; with RPEMYC^H2B-GFP cells [10], 1 µM. Also, the minimal effective concentration in [11], in experiment [15], in experiment [16] and in experiment [17] was 0.001 to 1 µM throughout. Moreover, the EC50 was 1 to 1000 nM in experiment [2]; 1 to 1000 nM in [4]; 1 to 1000 nM in experiment [5]; 1000 to 10000 nM in experiment [7]; 1 to 1000 nM in experiment [9]; 1 to 1000 nM in [12]. The EC50 in [13] and in [14] was 1 to 1000 nM each time.

The record behind these values is patent US20240262803A1, “COMPOUNDS, COMPOSITIONS AND METHODS OF TREATING DISORDERS” (Chungdu Anticancer Bioscience Ltd, priority 2021, published 2024).
